# Measurements as given in PubChem BioAssay (NCI).
#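 Each compound was tested at five concentrations against cells in 96-well plates for 48 hours. The concentration for full growth arrest is given as TGI.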
# What was measured:
# Experiment in all cases: NCI-60 cell line screen, 48 h
# [1] = tested on: SF-268 CNS
# [2] = tested on: HCT-116 colon
# [3] = tested on: SR leukemia
# [4] = tested on: LOX IMVI melanoma
# [5] = tested on: SF-539 CNS
# [6] = tested on: BT-549 breast
# [7] = tested on: OVCAR-5 ovarian
# [8] = tested on: SF-295 CNS
# [9] = tested on: HOP-62 NSCLC
# [10] = tested on: ACHN renal
# [11] = tested on: K-562 leukemia
# [12] = tested on: NCI-H226 lung
# [13] = tested on: MCF7 breast
# [14] = tested on: SN12C renal
# [15] = tested on: HCT-15 colon
# [16] = tested on: HL-60(TB) leukemia
# [17] = tested on: OVCAR-3 ovarian
# [18] = tested on: UO-31 renal
# [19] = tested on: MDA-MB-435
# [20] = tested on: SNB-19 CNS
# [21] = tested on: CCRF-CEM leukemia
# [22] = tested on: MALME-3M melanoma
# [23] = tested on: MDA-MB-231 breast
# [24] = tested on: M14 melanoma
# [25] = tested on: COLO 205 colon
# [26] = tested on: A549 NSCLC
# [27] = tested on: SNB-75 CNS
# [28] = tested on: 786-0 renal
# [29] = tested on: NCI/ADR-RES ovarian
# [30] = tested on: OVCAR-4 ovarian
# [31] = tested on: UACC-257 melanoma
# [32] = tested on: IGROV1 ovarian
# [33] = tested on: SK-MEL-2 melanoma
# [34] = tested on: KM12 colon
# [35] = tested on: TK-10 renal
# [36] = tested on: MOLT-4 leukemia
# [37] = tested on: SW-620 colon
# [38] = tested on: U251 CNS
# [39] = tested on: UACC-62 melanoma
# [40] = tested on: OVCAR-8 ovarian
# [41] = tested on: MDA-N
# [42] = tested on: DU-145 prostate
# [43] = tested on: NCI-H522 lung
# [44] = tested on: PC-3 prostate
# [45] = tested on: NCI-H460 lung
# [46] = tested on: HOP-92 NSCLC
# [47] = tested on: HS 578T breast
# [48] = tested on: RPMI-8226 leukemia
# [49] = tested on: CAKI-1 renal
# [50] = tested on: HCC-2998 colon
# [51] = tested on: NCI-H23 lung
# [52] = tested on: SK-MEL-28 melanoma
# [53] = tested on: EKVX NSCLC
# [54] = tested on: SK-OV-3 ovarian
# [55] = tested on: HT29 colon
# [56] = tested on: A498 renal
# [57] = tested on: SK-MEL-5 melanoma
# [58] = tested on: RXF 393 renal
smiles,measurement,setting,value
Cc1cc(C)c2ccc(N3CCNCC3)nc2n1,TGI,[1],> 100 µM
same,TGI,[2],> 100 µM
same,TGI,[3],> 100 µM
same,TGI,[4],> 100 µM
same,TGI,[5],> 100 µM
same,TGI,[6],> 100 µM
same,TGI,[7],> 100 µM
same,TGI,[8],> 100 µM
same,TGI,[9],> 100 µM
same,TGI,[10],> 100 µM
same,TGI,[11],> 100 µM
same,TGI,[12],> 100 µM
same,TGI,[13],> 100 µM
same,TGI,[14],> 100 µM
same,TGI,[15],> 100 µM
same,TGI,[16],> 100 µM
same,TGI,[17],> 100 µM
same,TGI,[18],> 100 µM
same,TGI,[19],> 100 µM
same,TGI,[20],> 100 µM
same,TGI,[21],> 100 µM
same,TGI,[22],> 100 µM
same,TGI,[23],> 100 µM
same,TGI,[24],> 100 µM
same,TGI,[25],> 100 µM
same,TGI,[26],> 100 µM
same,TGI,[27],> 100 µM
same,TGI,[28],> 100 µM
same,TGI,[29],> 100 µM
same,TGI,[30],> 100 µM
same,TGI,[31],> 100 µM
same,TGI,[32],> 100 µM
same,TGI,[33],> 100 µM
same,TGI,[34],> 100 µM
same,TGI,[35],> 100 µM
same,TGI,[36],> 100 µM
same,TGI,[37],> 100 µM
same,TGI,[38],> 100 µM
same,TGI,[39],> 100 µM
same,TGI,[40],> 100 µM
same,TGI,[41],> 100 µM
same,TGI,[42],> 100 µM
same,TGI,[43],> 100 µM
same,TGI,[44],> 100 µM
same,TGI,[45],> 100 µM
same,TGI,[46],> 100 µM
same,TGI,[47],> 100 µM
same,TGI,[48],> 100 µM
same,TGI,[49],> 100 µM
same,TGI,[50],> 100 µM
same,TGI,[51],> 100 µM
same,TGI,[52],> 100 µM
same,TGI,[53],> 100 µM
same,TGI,[54],> 100 µM
same,TGI,[55],> 100 µM
O=C(c1cc(Cl)ccc1Cl)N1CCN(c2ccc(Cl)c(Cl)c2)CC1,TGI,[1],> 100 µM
same,TGI,[2],> 100 µM
same,TGI,[3],> 100 µM
same,TGI,[4],84.1 µM
same,TGI,[5],76.4 µM
same,TGI,[6],80.8 µM
same,TGI,[7],> 100 µM
same,TGI,[8],> 100 µM
same,TGI,[9],> 100 µM
same,TGI,[10],> 100 µM
same,TGI,[11],85.4 µM
same,TGI,[12],> 100 µM
same,TGI,[13],72 µM
same,TGI,[14],> 100 µM
same,TGI,[15],> 100 µM
same,TGI,[16],> 100 µM
same,TGI,[17],> 100 µM
same,TGI,[18],33.8 µM
same,TGI,[56],44.1 µM
same,TGI,[21],> 100 µM
same,TGI,[22],> 100 µM
same,TGI,[23],> 100 µM
same,TGI,[26],> 100 µM
same,TGI,[27],> 100 µM
same,TGI,[28],48.5 µM
same,TGI,[30],> 100 µM
same,TGI,[31],83.9 µM
same,TGI,[32],> 100 µM
same,TGI,[34],51.9 µM
same,TGI,[35],> 100 µM
same,TGI,[36],54.3 µM
same,TGI,[37],> 100 µM
same,TGI,[38],> 100 µM
same,TGI,[40],45.5 µM
same,TGI,[41],96.2 µM
same,TGI,[42],> 100 µM
same,TGI,[43],52.6 µM
same,TGI,[44],97.8 µM
same,TGI,[45],36.1 µM
same,TGI,[57],30.3 µM
same,TGI,[46],> 100 µM
same,TGI,[47],> 100 µM
same,TGI,[48],> 100 µM
same,TGI,[49],> 100 µM
same,TGI,[50],> 100 µM
same,TGI,[51],> 100 µM
same,TGI,[52],> 100 µM
same,TGI,[58],54.1 µM
same,TGI,[53],> 100 µM
same,TGI,[55],83.9 µM
